From US6521605B1, “Amidophosphate derivatives” (Eli Lilly and Company, priority 1998, dated 2003)

Target: T1, human GluR4B receptor (Homo sapiens, UniProt P48058)
T1 construct: expressed in transfected cells
Assay: potentiation of agonist-induced excitability of human GluR4B receptor expressed in HEK 293 cells
Format: cell-based
Details: human GluR4B expressed in HEK 293 cells
Text: The ability of compounds of formula I to potentiate glutamate receptor-mediated response may be determined using fluorescent calcium indicator dyes (Molecular Probes, Eugene, Oreg., Fluo-3) and by measuring glutamate-evoked efflux of calcium into GluR4 transfected HEK293 cells, as described in more detail below.
In one test, 96 well plates containing confluent monolayers of HEK cells stably expressing human GluR4B (obtained as described in European Patent Application Publication Number EP-A1-583917) are prepared. The tissue culture medium in the wells is then discarded, and the wells are each washed once with 200 μl of buffer (glucose, 10 mM, sodium chloride, 138 mM, magnesium chloride, 1 mM, potassium chloride, 5 mM, calcium chloride, 5 mM, N-[2-hydroxyethyl]-piperazine-N-[2-ethanesulfonic acid], 10 mM, to pH 7.1 to 7.3). […]
Each test is then performed as follows. […] A second fluorescent reading is taken after 5 minutes incubation. 15 μl of 400 μM glutamate solution is then added to each well (final glutamate concentration 100 μM), and a third reading is taken. The activities of test compounds and cyclothiazide solutions are determined by subtracting the second from the third reading (fluorescence due to addition of glutamate in the presence or absence of test compound or cyclothiazide) and are expressed relative to enhance fluorescence produced by 100 μM, cyclothiazide.

T1 sequence (P48058 21-902): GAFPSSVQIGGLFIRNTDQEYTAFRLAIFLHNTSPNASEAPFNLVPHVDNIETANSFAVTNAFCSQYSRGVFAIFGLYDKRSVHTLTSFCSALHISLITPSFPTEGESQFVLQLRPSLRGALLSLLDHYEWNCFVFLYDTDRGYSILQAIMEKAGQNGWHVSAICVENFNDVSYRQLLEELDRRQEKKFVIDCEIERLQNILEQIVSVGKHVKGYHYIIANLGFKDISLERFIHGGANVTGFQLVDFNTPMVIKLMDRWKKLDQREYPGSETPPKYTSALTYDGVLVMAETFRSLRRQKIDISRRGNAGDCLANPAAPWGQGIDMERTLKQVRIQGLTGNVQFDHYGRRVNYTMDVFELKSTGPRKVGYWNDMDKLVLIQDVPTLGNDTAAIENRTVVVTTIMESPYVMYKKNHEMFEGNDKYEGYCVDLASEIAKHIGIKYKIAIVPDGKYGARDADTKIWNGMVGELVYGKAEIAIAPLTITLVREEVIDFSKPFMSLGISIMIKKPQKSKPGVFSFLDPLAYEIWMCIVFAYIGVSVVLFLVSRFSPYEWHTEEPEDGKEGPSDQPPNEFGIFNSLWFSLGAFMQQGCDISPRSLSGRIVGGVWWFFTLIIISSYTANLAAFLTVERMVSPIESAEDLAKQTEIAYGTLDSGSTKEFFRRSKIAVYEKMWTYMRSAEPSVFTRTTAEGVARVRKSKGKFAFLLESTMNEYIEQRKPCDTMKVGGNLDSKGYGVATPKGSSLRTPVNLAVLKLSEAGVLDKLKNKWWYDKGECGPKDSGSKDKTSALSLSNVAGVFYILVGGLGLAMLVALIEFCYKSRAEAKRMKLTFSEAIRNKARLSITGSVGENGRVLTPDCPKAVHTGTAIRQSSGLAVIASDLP

NS(=O)(=O)c1cc2c(cc1Cl)NC(C1CC3C=CC1C3)NS2(=O)=O (stereo not shown) [cyclothiazide]
potentiation of agonist-induced excitability of human GluR4B receptor: potentiate agonist-induced excitability
